Test results as given in PMC10223284, “Category-Based Toxicokinetic Evaluations of Data-Poor Per- and Polyfluoroalkyl Substances (PFAS) using Gas Chromatography Coupled with Mass Spectrometry” (Toxics, 2023).
Values joined by “and” are separate entries in the source; they are usually repeats but may differ in a detail not shown here. Equal values may be shown once.

Experiments:
[1] = Abiotic loss in negative controls of the hepatocyte clearance assay (cell-free media, metabolically inactivated hepatocytes); format: in vitro ADME; conditions: flag for stability failure in hepatocyte clearance assay controls (1 or Fst = fail, 0 = pass)
Method: The hepatic metabolic stability assay measures the loss of a parent compound over time in a substrate-depletion approach. Briefly, hepatocyte suspensions, after a viability assessment, were diluted in complete William’s medium E (containing dexamethasone and cell maintenance cocktail B) prior to addition to 96-well polypropylene plates containing an equal volume of media spiked with the test compound (1 μM assay concentration; assay cell density = 50,000 cells/100 μL) and maintained at 37 °C with shaking. At each time point, relevant plates were crashed with an equal volume of ice-cold acetonitrile, centrifuged, and supernatant transferred to a new plate prior to storage at <−70 °C until quantitative analysis. Controls, run in parallel, included cell-free (i.e., media only) and metabolically inactivated hepatocytes to evaluate abiotic chemical stability in the aqueous media matrix with and without cellular protein. In preliminary runs, these controls were run at T0 and T240 only. If significant instability was noted, the hepatocyte clearance assay was rerun, including cell-free samples at each time point and metabolically inactivated hepatocytes at selected time points.
Negative controls, including media only and metabolically inactivated hepatocyte controls, were included to monitor abiotic loss (i.e., background clearance) during the assay. Where significant compound loss occurred using the analysis described above, background clearance rates were calculated and used to background-adjust hepatic metabolic clearance rates. Where chemicals were cleared prior to the end of the analysis, at 240 min (T240), the corresponding negative control timepoint was used for background subtraction. Any chemicals displaying a 50% or more abiotic loss at T120 were deemed unstable and were excluded from further analyses.

[2] = tested on: human plasma; test: Chemical stability in plasma over the UC assay time course (T5hr/T1hr); conditions: for % remaining_PPB: chemical remaining in plasma over the PPB assay time course, NS = no significant loss; for PPB_Stab_Fail: flag for stability failure in the plasma protein binding assay (1 = fail, 0 = pass); for Time 1 hr / Time 1 hr, Run-specific Avg: amount measured in plasma sample at 1 hr; for Time 1 hr / Time 5 hr: replicates A, B, C; for Time 1 hr / Time 1 hr, Run-specific Avg / Time 5 hr / Time 5 hr, Run-specific Avg: unit not given; for Time 1 hr, Run-specific Avg / Time 5 hr, Run-specific Avg: run average; for Time 5 hr / Time 5 hr, Run-specific Avg: amount measured in plasma sample at 5 hr; for Stability (T5hr/ T1hr), Run-specific Avg: average of one UC run; for Mean Stability: mean T5hr/T1hr ratio in plasma over all replicates/runs; for Fstable.Med: median fraction stable in plasma, UC assay Level4
[3] = tested on: human plasma; test: Ultracentrifugation (UC) plasma protein binding assay, fraction unbound in plasma (fup); conditions: for Aqueous Fraction / Aqueous Fraction, Run-specific Avg: amount measured in aqueous fraction after ultracentrifugation, unit not given; for Aqueous Fraction: replicates A, B, C; for Aqueous Fraction, Run-specific Avg: run average; for Fraction Unbound (fu), Run-specific Avg: average of one UC run; for Mean fu: fraction unbound in human plasma, ultracentrifugation, some values based on eLOQ; for Fup.Med: median fraction unbound in plasma; for Fup.Med / Fup.point: UC assay Level4; for Fup.point: point estimate of fraction unbound in plasma

For `C=CC(=O)OCC(F)(F)C(F)(F)C(F)(F)C(F)(F)COC(=O)C=C` [DTXSID80379721], the Hep_Stab_Fail [1] was 1, the “% remaining_PPB” value [2] was 0% and the PPB_Stab_Fail [2] was 1.
With `NCC(F)(F)C(F)(F)C(F)(F)C(F)(F)C(F)(F)C(F)(F)C(F)(F)C(F)(F)F` [1H,1H-Perfluorononylamine] the “Time 1 hr” value [2] was 12346.8 and 12130.3 and 11151.5, the “Time 1 hr, Run-specific Avg” value [2] was 11876.18 and the “Time 5 hr” value [2] was 7604.95 and 6828.46 and 6766.48. The “Time 5 hr, Run-specific Avg” value [2] was 7216.71, the “Stability (T5hr/ T1hr), Run-specific Avg” value [2] was 0.608 and the “% remaining_PPB” value [2] was 60%. For the same compound, the PPB_Stab_Fail [2] was 0, the “Mean Stability” value [2] was 0.598 and the Fstable.Med [2] was 0.177. The “Aqueous Fraction” value [3] was 414.774 and 241.353 and 265.963, the “Aqueous Fraction, Run-specific Avg” value [3] was 307.36 and the “Fraction Unbound (fu), Run-specific Avg” value [3] was 0.0431. The Mean fu [3] was 0.043, the Fup.Med [3] was 0.0402 and the Fup.point [3] was 0.0359.
In the case of `OCCC(F)(F)C(F)(F)C(F)(F)C(F)(F)C(F)(F)C(F)(F)F` [6:2 Fluorotelomer alcohol], the Hep_Stab_Fail [1] is reported as 1, the “Time 1 hr” value [2] is reported as 10242.5 and 11181.9 and 10094.7 and the “Time 1 hr, Run-specific Avg” value [2] is reported as 10506.38. The “Time 5 hr” value [2] was 8145.88 and 10628.7 and 9411.26, the “Time 5 hr, Run-specific Avg” value [2] was 9387.28 and the “Stability (T5hr/ T1hr), Run-specific Avg” value [2] was 0.893. The “% remaining_PPB” value [2] was 100%, the PPB_Stab_Fail [2] was 0 and the “Mean Stability” value [2] was 0.895. The Fstable.Med [2] was 0.205, the “Aqueous Fraction” value [3] was 219.897 and 3328.34 and 176.612 and the “Aqueous Fraction, Run-specific Avg” value [3] was 1241.62. For the same compound, the “Fraction Unbound (fu), Run-specific Avg” value [3] was 0.0229, the Fup.Med [3] was 0.232 and the Fup.point [3] was 0.152.
In the case of `OCCC(F)(F)C(F)(F)C(F)(F)C(F)(F)C(F)(F)C(F)(F)C(F)(F)C(F)(F)F` [8:2 Fluorotelomer alcohol], the “Time 1 hr” value [2] is reported as 10349.3 (2×) and 9635.91, the “Time 1 hr, Run-specific Avg” value [2] is reported as 10111.53 and the “Time 5 hr” value [2] is reported as 7909.09 and 8525.8 and 8231.76. For the same compound, the “Time 5 hr, Run-specific Avg” value [2] was 8217.44, the “Stability (T5hr/ T1hr), Run-specific Avg” value [2] was 0.813 and the “% remaining_PPB” value [2] was 100%. The PPB_Stab_Fail [2] was 0, the “Mean Stability” value [2] was 0.814 and the Fstable.Med [2] was 0.162. The “Aqueous Fraction” value [3] was 192.869 and 61.5201 and 158.809, the “Aqueous Fraction, Run-specific Avg” value [3] was 137.73 and the “Fraction Unbound (fu), Run-specific Avg” value [3] was 0.017. It also gave a Mean fu [3] of 0.0170, a Fup.Med [3] of 0.0168 and a Fup.point [3] of 0.0243.
`OCCCC(F)(F)C(F)(F)C(F)(F)C(F)(F)C(F)(F)C(F)(F)C(F)(F)F` [7:3 Fluorotelomer alcohol] gave a Hep_Stab_Fail [1] of 1, a PPB_Stab_Fail [2] of 0 and a Mean fu [3] of 0.0230.
For `NCC(F)(F)C(F)(F)C(F)(F)C(F)(F)C(F)(F)C(F)(F)F` [1H,1H-Perfluoroheptylamine], the “Time 1 hr” value [2] was 7913.09 and 7505.36 and 6518.71, the “Time 1 hr, Run-specific Avg” value [2] was 7312.39 and the “Time 5 hr” value [2] was 3934.26 and 4036.14 and 3821.62. The “Time 5 hr, Run-specific Avg” value [2] was 3985.20, the “Stability (T5hr/ T1hr), Run-specific Avg” value [2] was 0.545 and the “% remaining_PPB” value [2] was 54%. For the same compound, the PPB_Stab_Fail [2] was 0, the “Mean Stability” value [2] was 0.541 and the Fstable.Med [2] was 0.0946. The “Aqueous Fraction” value [3] was 488.915 and 403.165 and 617.709, the “Aqueous Fraction, Run-specific Avg” value [3] was 503.26 and the “Fraction Unbound (fu), Run-specific Avg” value [3] was 0.13. It also gave a Mean fu [3] of 0.129, a Fup.Med [3] of 0.129 and a Fup.point [3] of 0.121.
In the case of `FC(F)(F)C(F)(F)C(F)(F)C(F)(F)C(F)(F)C(F)(F)C(F)(F)I` [1-Iodopentadecafluoroheptane], the Hep_Stab_Fail [1] is reported as 1, the “% remaining_PPB” value [2] is reported as 16% and the PPB_Stab_Fail [2] is reported as 1. It also gave a Fstable.Med [2] of 0.202 and a Fup.Med [3] of 0.907.
In the case of `C=CC(=O)OCC(F)(F)C(F)(F)C(F)(F)C(F)(F)C(F)(F)C(F)(F)C(F)(F)F` [1H,1H-Perfluorooctyl acrylate], the Hep_Stab_Fail [1] is reported as 1, the “% remaining_PPB” value [2] is reported as 6% and the PPB_Stab_Fail [2] is reported as 1.
In the case of `C=CC(=O)OCCC(F)(F)C(F)(F)C(F)(F)C(F)(F)F` [2-(Perfluorobutyl)ethyl acrylate], the Hep_Stab_Fail [1] is reported as 1, the “% remaining_PPB” value [2] is reported as 0% and the PPB_Stab_Fail [2] is reported as 1. The Fstable.Med [2] was 0.000485, the Fup.Med [3] was 2.26E-06 and the Fup.point [3] was 0.078.
For `FC(F)(F)C(F)(F)C(F)(F)CC1CO1` (centres unmarked) [1H,1H-Heptafluorobutyl epoxide], the Hep_Stab_Fail [1] was 1, the “% remaining_PPB” value [2] was 0% and the PPB_Stab_Fail [2] was 1.
In the case of `CC(O)C(F)(F)C(F)(F)F` (centres unmarked) [DTXSID70880134], the Hep_Stab_Fail [1] is reported as 1, the “% remaining_PPB” value [2] is reported as 0% and the PPB_Stab_Fail [2] is reported as 1.
For `CO[Si](C)(CCC(F)(F)C(F)(F)C(F)(F)C(F)(F)C(F)(F)C(F)(F)F)OC` [DTXSID40235137], the Hep_Stab_Fail [1] was 1, the “% remaining_PPB” value [2] was 0% and the PPB_Stab_Fail [2] was 1.
`CC(C)(C)C(=O)CC(=O)C(F)(F)C(F)(F)C(F)(F)F` [(Heptafluorobutanoyl)pivaloylmethane] showed a Hep_Stab_Fail [1] of 1.
In the case of `FC(F)(F)C(F)(F)C(F)(F)C(F)(F)C(F)(F)C(F)(F)CCS` [DTXSID20379947], the “% remaining_PPB” value [2] is reported as 0% and the PPB_Stab_Fail [2] is reported as 1.
In the case of `C=C(C)C(=O)OCCC(F)(F)C(F)(F)C(F)(F)C(F)(F)C(F)(F)C(F)(F)F` [6:2 Fluorotelomer methacrylate], the “% remaining_PPB” value [2] is reported as 54%, the PPB_Stab_Fail [2] is reported as 0 and the Fstable.Med [2] is reported as 0.0566. For the same compound, the Mean fu [3] was 0.21, the Fup.Med [3] was 0.102 and the Fup.point [3] was 0.0856.
For `OCC(F)(F)OC(F)(F)C(F)(F)OC(F)(F)C(F)(F)OC(F)(F)F` [Fluorinated triethylene glycol monomethyl ether], the Hep_Stab_Fail [1] was 1, the “% remaining_PPB” value [2] was 0% and the PPB_Stab_Fail [2] was 1.
In the case of `FC(F)(F)C(F)(F)CNCC(F)(F)C(F)(F)F` [Bis(1H,1H-perfluoropropyl)amine], the “Time 1 hr” value [2] is reported as 11322.6 and 13421.7 and 13036.1, the “Time 1 hr, Run-specific Avg” value [2] is reported as 12593.46 and the “Time 5 hr” value [2] is reported as 11284.3 and 10114.7 and 8561.71. The “Time 5 hr, Run-specific Avg” value [2] was 10699.45, the “Stability (T5hr/ T1hr), Run-specific Avg” value [2] was 0.850 and the PPB_Stab_Fail [2] was 0. The “Mean Stability” value [2] was 0.799, the Fstable.Med [2] was 0.999 and the “Aqueous Fraction” value [3] was 403.75 and 491.531 and 501.978. For the same compound, the “Aqueous Fraction, Run-specific Avg” value [3] was 465.75, the “Fraction Unbound (fu), Run-specific Avg” value [3] was 0.05 and the Mean fu [3] was 0.0477. For the same compound, the “Mean Fu” value ([3]; mean fraction unbound in human plasma over all UC replicates/runs) was 0.048, the Fup.Med [3] was 0.0412 and the Fup.point [3] was 0.0433.
